Data published in patent US20240415814A1, “PHARMACEUTICAL COMPOSITION COMPRISING 1-(3-CYANO-1-ISOPROPYL-INDOL-5-YL)PYRAZOLE-4-CARBOXYLIC ACID” (LG CHEM, LTD., priority 2021, published 2024).

Legend:
serum uric acid [1] = assay: Phase 2 clinical trial (NCT03934099): serum uric acid concentration in gout patients; format: in vivo, human; conditions: for patients with serum uric acid concentration <4 mg/dL / patients with serum uric acid concentration <5 mg/dL / patients with serum uric acid concentration <6 mg/dL: febuxostat group 40 mg oral
Protocol: A phase 2 clinical trial was conducted to analyze the dosage, TEAEs, and the like when the compound of Formula 1 (1-(3-cyano-1-isopropyl-indol-5-yl)pyrazol-4-carboxylic acid; compound of Example 1) is administered to a gout patient group.
• 1. Written informed consent (signed and dated) provided voluntarily prior to the start of the study. • 2. Male or female aged from 18 to 75 • 3. History or experience of hyperuricemia and gout in accordance with the criteria of the American College of Rheumatology. • 4. Self-reported history of 2 or more gout flare within 12 months prior to screening visit (Visit 1). • 5. Serum uric acid (sUA) levels at Visit 1 of 6.0 mg/dL or more in subjects who were receiving urate lower therapy (ULT) with allopurinol, febuxostat, probenecid, or lesinurad; and sUA levels at Visit 1 of 8.0 mg/dL or more and 12.0 mg/dL or less in subjects who had no history of receiving the ULT or were not receiving the ULT at visit 1. • 6. sUA levels of 8.0 mg/dL or more and 12.0 mg/dL or less at Visit 3. • 7. Body mass index of 42 kg/m^2 or less at screening visit (Visit 1). • 8. Estimated glomerular filtration rate (eGFR) of 60 mL/min/1.73 m^2 or more at screening visit (Visit 1). • 9. Subjects of childbearing potential with a negative pregnancy test result at screening visit (Visit 1). Subjects (female subjects of childbearing potential and male subjects with partners of childbearing potential) consented to use adequate methods of contraception to avoid pregnancy during the study period. • 10. Able to understand the study procedure and relevant risk, and willing to comply with the visit/protocol schedule.
• 1. Presence of secondary hyperuricemia caused by myeloproliferative disorder, organ transplantation, or the like. • 2. Experience of any active acute gout flare within 3 weeks prior to screening visit (Visit 1). • 3. Aspartate aminotransferase or alanine aminotransferase level exceeds 2 times upper limit of normal (ULN) at screening visit (Visit 1). • 4. Creatine kinase level exceeds 2.5 times ULN at screening visit (Visit 1). • 5. Presence of previous hypersensitivity to colchicine. • 6. Patients who have ever prescribed pegloticase within 3 months prior to screening visit (Visit 1). • 7. If a stable dose of drugs (losartan, fibrate, thiazide diuretics, loop diuretics, and acetylsalicylic acid) known to affect sUA levels has not been administered during the past 6 weeks prior to screening visit (Visit 1), acetylsalicylic acid is not allowed to use 325 mg/day or more. • 8. Patients who have ever received systemic corticosteroids for 10 or more consecutive days within 1 month prior to screening visit (Visit 1). • 9. Presence of need or potential availability of systemic immunosuppressive drugs or immunomodulatory therapies (e.g., azathioprine, 6-mercaptopurine, and cyclosporine) • 10. Patients who have received high or moderate doses of cytochrome P450 3A4 inhibitors or P-glycoprotein inhibitors within 14 days prior to screening visit (Visit 1). • 11. History of xanthinuria. • 12. History of rheumatoid arthritis. • 13. Presence of active peptic ulcer disease requiring treatment. • 14. Presence of unstable angina, New York Heart Association class III or IV heart failure, myocardial infarction, stroke, deep vein thrombosis, percutaneous coronary intervention (with or without stent), or coronary artery bypass graft within the past 12 months prior to screening visit (Visit 1); current administration of anticoagulants; or the presence of clinically significant electrocardiogram abnormalities in the investigator's opinion at screening visit (Visit 1). • 15. Presence of uncontrolled hypertension (systolic blood pressure>160 mmHg or diastolic blood pressure>95 mmHg) at screening visit (Visit 1). • 16. History of myositis/myopathy, rhabdomyolysis, Stevens-Johnson syndrome, or toxic epidermal necrolysis. • 17. […]

serum uric acid [2] = conditions: previous results, gout patients; cited from earlier work
[3] = febuxostat 40 mg, mild renal function impairment, 12 weeks
[4] = febuxostat 40 mg, normal renal function, 12 weeks
[5] = febuxostat 40 mg, one patient in moderate renal function impairment group, 12 weeks

| Compound | patients adjusted to serum uric acid <5.0 mg/dL (serum uric acid [1]; [3]) | patients adjusted to serum uric acid <6.0 mg/dL (serum uric acid [1]; [3]) | patients adjusted to serum uric acid <5.0 mg/dL (serum uric acid [1]; [4]) | patients adjusted to serum uric acid <6.0 mg/dL (serum uric acid [1]; [4]) | adjustment of serum uric acid to <5.0 mg/dL (serum uric acid [1]; [5]) | adjustment of serum uric acid to <6.0 mg/dL (serum uric acid [1]; [5]) | patients with serum uric acid concentration <4 mg/dL (serum uric acid [1]; 12 weeks) | patients with serum uric acid concentration <5 mg/dL (serum uric acid [1]; 12 weeks) | patients with serum uric acid concentration <6 mg/dL (serum uric acid [1]; 12 weeks) | patients with serum uric acid concentration <4 mg/dL (serum uric acid [1]; 12 weeks, listed as febuxostat) | patients with serum uric acid concentration <5 mg/dL (serum uric acid [1]; 12 weeks, listed as febuxostat) | patients with serum uric acid concentration <6 mg/dL (serum uric acid [1]; 12 weeks, listed as febuxostat) | degree of reduction in serum uric acid (serum uric acid [1]; febuxostat group 40 mg, FIG. 3) | patients in the receiving group with serum uric acid concentration of less than 6 mg/dL (serum uric acid [2]) |
| --- | --- | --- | --- | --- | --- | --- | --- | --- | --- | --- | --- | --- | --- | --- |
| Cc1nc(-c2ccc(OCC(C)C)c(C#N)c2)sc1C(=O)O [Febuxostat, febuxostat, reference compound] | 33% | 67% | 20% | 60% | not adjusted to less than 5.0 mg/dL | not adjusted to less than 6.0 mg/dl | 0% (0/13 people) | 23% (3/13 people) | 54% (7/13 people) | 0% | 23% | 54% | 41.4% | – |
| Oc1ncnc2[nH]ncc12 [allopurinol] | – | – | – | – | – | – | – | – | – | – | – | – | – | about 40% |
